Values quoted from earlier work as cited in US20190000850A1, “COMBINATION CANCER THERAPY” (The Regents of the University of California, priority 2015, published 2019).

Columns and labels:
Chk1 = biological target: T1, Chk1 (Homo sapiens, UniProt O14757); details: read-out: IC50 against primary target (Chk1); cited from earlier work
T1 sequence (O14757 1-476): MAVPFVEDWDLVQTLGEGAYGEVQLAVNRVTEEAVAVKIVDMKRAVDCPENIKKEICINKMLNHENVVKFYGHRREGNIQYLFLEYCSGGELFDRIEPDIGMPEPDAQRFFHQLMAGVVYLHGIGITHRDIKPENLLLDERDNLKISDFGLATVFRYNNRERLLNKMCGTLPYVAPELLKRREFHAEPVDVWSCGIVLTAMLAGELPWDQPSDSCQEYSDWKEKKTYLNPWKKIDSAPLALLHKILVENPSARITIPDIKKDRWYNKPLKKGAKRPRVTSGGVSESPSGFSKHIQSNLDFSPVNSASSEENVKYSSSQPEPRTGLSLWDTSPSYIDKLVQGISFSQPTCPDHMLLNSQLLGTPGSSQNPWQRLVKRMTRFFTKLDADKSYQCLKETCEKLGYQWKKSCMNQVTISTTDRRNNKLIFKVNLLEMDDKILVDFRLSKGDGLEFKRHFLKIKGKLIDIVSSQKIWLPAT

cdc2 = cdc2 (Homo sapiens, UniProt P06493); details: cited from earlier work
PKC = details: cited from earlier work
Chk2 = Chk2 (Homo sapiens, UniProt O96017); details: read-out: IC50 against Chk2; cited from earlier work
Sequence of Chk2 (O96017 whole entry, species assumed): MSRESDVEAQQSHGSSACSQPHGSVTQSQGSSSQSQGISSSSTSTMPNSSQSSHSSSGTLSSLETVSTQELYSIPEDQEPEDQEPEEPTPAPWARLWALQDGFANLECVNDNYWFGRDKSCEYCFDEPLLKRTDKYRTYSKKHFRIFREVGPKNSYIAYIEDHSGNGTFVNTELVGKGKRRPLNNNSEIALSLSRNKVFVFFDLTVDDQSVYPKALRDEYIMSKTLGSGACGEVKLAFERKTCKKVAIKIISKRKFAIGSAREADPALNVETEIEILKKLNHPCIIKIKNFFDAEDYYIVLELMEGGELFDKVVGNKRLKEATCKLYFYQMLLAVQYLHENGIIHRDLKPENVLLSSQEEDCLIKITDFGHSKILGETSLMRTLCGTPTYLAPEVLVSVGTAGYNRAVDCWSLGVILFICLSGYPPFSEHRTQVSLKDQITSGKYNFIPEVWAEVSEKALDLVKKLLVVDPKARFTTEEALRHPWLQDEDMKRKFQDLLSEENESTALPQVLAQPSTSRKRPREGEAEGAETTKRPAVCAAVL

Sequence of cdc2 (P06493 whole entry, species assumed): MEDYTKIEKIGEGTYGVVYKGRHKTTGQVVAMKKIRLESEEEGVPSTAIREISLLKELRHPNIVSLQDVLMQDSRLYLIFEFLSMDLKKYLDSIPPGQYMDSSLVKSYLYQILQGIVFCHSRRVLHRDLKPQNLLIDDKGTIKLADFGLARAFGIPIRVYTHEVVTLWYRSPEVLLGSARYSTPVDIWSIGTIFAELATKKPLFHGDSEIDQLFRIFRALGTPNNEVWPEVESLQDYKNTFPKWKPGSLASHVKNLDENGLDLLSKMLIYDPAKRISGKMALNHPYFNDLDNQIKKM
Sequence of cdc2 (P14635 whole entry partner, species assumed): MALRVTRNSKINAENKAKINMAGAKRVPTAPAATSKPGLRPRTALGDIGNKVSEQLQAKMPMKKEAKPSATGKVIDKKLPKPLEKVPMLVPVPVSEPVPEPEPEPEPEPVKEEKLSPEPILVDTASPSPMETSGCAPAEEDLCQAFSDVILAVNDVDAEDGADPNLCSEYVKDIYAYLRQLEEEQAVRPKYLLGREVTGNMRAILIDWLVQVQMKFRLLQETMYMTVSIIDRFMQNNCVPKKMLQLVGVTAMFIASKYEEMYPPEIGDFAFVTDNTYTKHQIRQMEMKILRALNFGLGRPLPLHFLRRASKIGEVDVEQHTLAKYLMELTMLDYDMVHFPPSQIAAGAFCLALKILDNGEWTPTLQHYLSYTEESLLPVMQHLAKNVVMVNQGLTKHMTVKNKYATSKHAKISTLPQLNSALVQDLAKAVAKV

| SMILES | IC50 (Chk1) | IC50 (cdc2) | IC50 (PKC) | IC50 (Chk2) |
| --- | --- | --- | --- | --- |
| O=C1NC(=O)c2c1c1c3ccccc3n3c1c1c2c2ccccc2n1C1CCC3O1 [SB-218078] | 15 nM | 250 nM | 1000 nM | – |
| CN(C)CC(C)(C)COc1ccc2[nH]c(-c3cc(NC(=O)c4cnn(Cc5ccccc5)c4)c[nH]c3=O)cc2c1 [V158411] | 3.5 nM | – | – | 2.5 nM |
